Reference: patent US6225478A, “Iridoid derivatives and neovascularization inhibitors containing the same as active ingredient” (Tsumura & Co., priority 1999, dated 2001)

Legend:
[1] = test system: HUFEC; assay: Cell Migration Assay (CMA) Test, inhibitory rate with control (-) correction; assay type: cell-based, human; settings: Homo sapiens, 24 h, 125 μl of 0.32 mM sample solution in 4.0 ml medium, 80% or more = remarkable
Summary of the method: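 Confluent HUFEC monolayers were scratch-wounded, then cultured 24 h at 37 °C, 5% CO2 in M199 (2+) medium with compound added as 125 μl of a 0.32 mM solution (3.2% DMSO) per 4 ml. Giemsa-stained cells migrating into 1 mm×1 mm blocks counted; inhibition % calculated relative to control (+) and control (−) wells.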

[2] = test system: human umbilical-vein endothelial cells (HUVEC); assay: Tube Formation Assay (TFA) Test, HUVEC in collagen gel; assay type: cell-based; settings: Homo sapiens, HUVEC, Tables 75-83; 0.32 mM sample solution; method as for Compounds 1 through 60; read-out: TFA Inhibition rate (%)
Summary of the method: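 Inhibition rate (%) of tube formation is computed from tube lengths against control (+) and control (-), measured after 20 h at 37 °C in M-199 with 20% FCS, 30 ng/ml b-FGF and 0.1 μM PMA. Samples were applied to HUVEC on collagen and covered by a second collagen layer (double-layer gel).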

Row | Compound | inhibition at 320 µM (stock) [1] | inhibition at 320 µM (stock) [2]
1 | COC(=O)C1=CO[C@@H](OC(=O)NCCN2CCCCC2)[C@H]2[C@@H]1CC[C@@H]2C [I-223] | 18.8% | 17.9%
2 | COC(=O)C1=CO[C@@H](OC(=O)N(C)CC2OCCO2)[C@H]2[C@@H]1CC[C@@H]2C [I-198] | 7.9% | 2.9%
3 | COC(=O)C1=CO[C@@H](OC(=O)NCC2CC2)[C@H]2[C@@H]1CC[C@@H]2C [I-241] | 12.6% | 5.1%
4 | COC(=O)C1=CO[C@@H](OC(=O)N(C)Cc2ccccc2)[C@H]2[C@@H]1CC[C@@H]2C [I-184] | 37.1% | 7.4%
5 | COC(=O)C1=CO[C@@H](OC(=O)NC2CC2)[C@@H]2C(C)=CC[C@H]12 [I-113] | 34.4% | 7.9%
6 | COC(=O)C1=CO[C@@H](OC(=O)NCCc2ccc(O)cc2)[C@H]2[C@@H]1CC[C@@H]2C [I-206] | 33.6% | 14.2%
7 | COC(=O)C1=CO[C@@H](OC(=O)NCc2ccncc2)[C@@H]2C(C)=CC[C@H]12 [I-116] | 5.6% | 6.9%
8 | COC(=O)C1=CO[C@@H](OC(=O)Nc2ccc(Cl)c(Cl)c2)[C@@H]2C(C)=CC[C@H]12 [I-163] | 5.6% | 11.5%
9 | CNC(=O)O[C@@H]1OC=C(C(=O)OC)[C@H]2CC[C@H](C)[C@@H]12 [I-254] | 4.7% | 4.6%
10 | COC(=O)C1=COC[C@H]2[C@@H]1C[C@@H]1O[C@@]12CO [I-289] | 9.4% | 17.1%
11 | COC(=O)C1=CO[C@@H](OC(=O)NCCCl)[C@@H]2C(C)=CC[C@H]12 [I-173] | 108% | 11.4%
12 | CCOC(=O)CCCNC(=O)O[C@@H]1OC=C(C(=O)OC)[C@H]2CC[C@H](C)[C@@H]12 [I-237] | 6.9% | 7.8%
13 | COC(=O)C1=CO[C@@H](OC(=O)N2CCN(c3cccc(C(F)(F)F)c3)CC2)[C@H]2[C@@H]1CC[C@@H]2C [I-235] | 6.5% | 9.3%
14 | COC(=O)C1=CO[C@@H](OC(=O)Nc2ccc(Br)cc2)[C@H]2[C@@H]1CC[C@@H]2C [I-259] | 5% | 2.9%
15 | COC(=O)C1=CO[C@@H](OC(=O)Nc2ccc(Cl)cc2C(F)(F)F)[C@H]2[C@@H]1CC[C@@H]2C [I-265] | 6.3% | 3.3%
16 | COC(=O)C1=CO[C@@H](OC(=O)NCc2ccccc2F)[C@H]2[C@@H]1CC[C@@H]2C [I-231] | 9.7% | 5.9%
17 | COC(=O)C1=CO[C@@H](OC(=O)NCc2ccc(OC)cc2)[C@H]2[C@@H]1CC[C@@H]2C [I-186] | 6.3% | 5.5%
18 | COC(=O)C1=CO[C@@H](OC(=O)NC2CCN(Cc3ccccc3)CC2)[C@@H]2C(C)=CC[C@H]12 [I-89] | 9.9% | 31.3%
19 | CNC(=O)O[C@@H]1OC=C(C(=O)NCCS)[C@H]2C[C@@H]3O[C@]3(C)[C@@H]12 [I-64] | 9.4% | 5.2%
20 | COC(=O)C1=CO[C@@H](OC(=O)Nc2ccc(F)cc2)[C@@H]2C(C)=CC[C@H]12 [I-156] | 5.8% | 10.9%
21 | CCOC(=O)c1ccc(NC(=O)O[C@@H]2OC=C(C(=O)OC)[C@H]3CC=C(C)[C@@H]23)cc1 [I-167] | 4.1% | 5.1%
22 | CONC(=O)O[C@@H]1OC=C(C(=O)OC)[C@H]2CC=C(C)[C@@H]12 [I-137] | 3.3% | 6.4%
23 | COC(=O)C1=CO[C@@H](OC(=O)Nc2ccc([N+](=O)[O-])cc2)[C@H]2[C@@H]1CC[C@@H]2C [I-269] | 19.5% | 8.3%
